Drawing on PMC8147998, “Apigenin and Structurally Related Flavonoids Allosterically Potentiate the Function of Human α7-Nicotinic Acetylcholine Receptors Expressed in SH-EP1 Cells” (Cells, 2021), this text covers activation for seven compounds.

One assay deals with T1, α7 human nicotinic acetylcholine receptor (α7 nACh receptor) (Homo sapiens, UniProt P36544).
T1 construct: gene CHRNA7; homomeric receptor stably expressed in SH-EP1 cells
T1 sequence (P36544 23-502): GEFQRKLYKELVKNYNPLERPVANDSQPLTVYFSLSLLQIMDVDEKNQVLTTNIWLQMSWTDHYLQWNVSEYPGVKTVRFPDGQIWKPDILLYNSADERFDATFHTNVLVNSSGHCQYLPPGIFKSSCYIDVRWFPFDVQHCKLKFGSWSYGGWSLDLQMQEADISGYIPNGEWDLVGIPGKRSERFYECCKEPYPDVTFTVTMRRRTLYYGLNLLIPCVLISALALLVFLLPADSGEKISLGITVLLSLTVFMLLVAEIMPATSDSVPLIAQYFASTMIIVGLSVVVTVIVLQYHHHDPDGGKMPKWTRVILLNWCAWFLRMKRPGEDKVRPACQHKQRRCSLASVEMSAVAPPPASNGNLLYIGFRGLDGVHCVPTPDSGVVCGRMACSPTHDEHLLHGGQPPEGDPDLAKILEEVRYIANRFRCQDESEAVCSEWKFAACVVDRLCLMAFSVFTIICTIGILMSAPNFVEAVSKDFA
Put plainly: Fluo-4 Ca2+ transient potentiation in SH-EP1 cells ([…] ACh); no change in […]-α-bungarotoxin binding. It is filed as cell-based. Conditions: SH-EP1, read-out: % potentiation at 10 μM.
Turning to `O=c1cc(-c2ccc(O)cc2)oc2cc(O)cc(O)c12` [apigenin], the activation at 10 µM turned out to be 48%.

As for `O=c1c(O)c(-c2ccc(O)cc2)oc2cc(O)cc(O)c12` [kaempferol], the activation at 10 µM came to 81%.

For the compound `O=c1c(O)c(-c2ccc(O)c(O)c2)oc2c(O)c(O)cc(O)c12` [gossypetin], the activation at 10 µM was 65%.

As to `O=c1c(-c2ccc(O)cc2)coc2cc(O)cc(O)c12` [genistein], the activation at 10 µM came to 83%. The same measure, in the same setting: next, `O=c1cc(-c2ccc(O)c(O)c2)oc2cc(O)cc(O)c12` [luteolin]: 72%; `O=C(CCc1ccc(O)cc1)c1c(O)cc(O)cc1O` [phloretin]: 112%.

Staying with this assay, now noted: SH-EP1; read-out: % potentiation at 10 μM.
Regarding `O=c1c(O)c(-c2ccc(O)c(O)c2)oc2cc(O)cc(O)c12` [quercetin], the activation at 10 µM was determined as 73%.
